What was measured:
Experiment in all cases: β-Lacta Test (colorimetric, HMRZ-86), isolated colonies
Format in all cases: cell-based
Parameters in all cases: key: Yellow or orange colour: negative result (absence of C3G-resistant strains); Orange: Yellow or orange colour: negative result (absence of C3G-resistant strains); Red colour: positive result (presence of C3G-resistant strains)
P. mirabilis strains = conditions: 30 min with HMRZ-86
Method: (§1) The electrochemical method of the invention was applied to analysis of a panel of 40 strains producing various β-lactamases and was compared with the R-Lacta™ Test (Biorad), the principle of which is based on qualitative colorimetric detection of the C3G-resistant strains. The results presented in Table 7 were obtained after 30 min of incubation of the bacteria with the substrate HMRZ-86 for both methods. Based on the interpretation of the results proposed by the supplier, the R-Lacta™ Test allows identification of the C3G-resistant strains with a level of agreement of 68%, whereas a level of agreement of 95% was obtained with the electrochemical method of the invention. In contrast to colorimetry, amperometry offers the advantage of measuring a numerical value of current which, on the one hand, avoids any subjective interpretation of the result (intermediate colour), and on the other hand allows traceability of the result.
(§2) Table 7: Comparison of the results obtained with the electrochemical method of the invention for liquid cultures with those obtained with the R-Lacta™ Test implemented according to the supplier's recommendations with isolated colonies. In both cases, the readings were taken after incubation with the substrate HMRZ-86 for 30 min.

[1] = tested on: E. coli strains producing various β-lactamases
Method: as §1, §2

S. marcescens strain = conditions: S. marcescens 11787, Hyperproduced cephalosporinase, 30 min with HMRZ-86
Method: as §1, §2

C. freundii strain = conditions: C. freundii 11745, Inducible cephalosporinase, 30 min with HMRZ-86
Method: as §1, §2

K. pneumoniae strains = tested on: K. pneumoniae strains
Method: as §1, §2

CC(C)(ON=C(C(=O)N[C@@H]1C(=O)N2C(C(=O)O)=C(C=Cc3ccc([N+](=O)[O-])cc3[N+](=O)[O-])CS[C@H]12)c1csc(N)n1)C(=O)O.O=C(O)C(F)(F)F [HMRZ-86, (6R,7R)-trifluoroacetate 7-[[2-(2-amino-4-thiazolyl)-2-[(1-carboxy-1-methylethoxy)imino]acetyl]amino]-1-aza-3-[2-(2,4-dinitrophenyl)ethenyl]-8-oxo-5-thiabicyclo[4.2.0]oct-2-ene-2-carboxylic acid]
β-Lacta ™ Test Colour (P. mirabilis strains; P. mirabilis 11747, Beta-lactamase negative): Yellow
β-Lacta ™ Test Colour (P. mirabilis strains; P. mirabilis 11768, Low-level penicillinase): Yellow
β-Lacta ™ Test Colour ([1]; E. coli 11746, Hyperproduced penicillinase, 30 min with HMRZ-86): Yellow
β-Lacta ™ Test Colour ([1]; E. coli 11748, Inducible cephalosporinase, 30 min with HMRZ-86): Yellow
β-Lacta ™ Test Colour ([1]; E. coli 11755, Carbapenemase OXA-48 - CTX-M, 30 min with HMRZ-86): Red
β-Lacta ™ Test Colour ([1]; E. coli 11757, Carbapenemase OXA-48, 30 min with HMRZ-86): Orange
β-Lacta ™ Test Colour ([1]; E. coli 11765, Hyperproduced penicillinase, 30 min with HMRZ-86): Yellow
β-Lacta ™ Test Colour ([1]; E. coli 11766, Inducible cephalosporinase, 30 min with HMRZ-86): Yellow
β-Lacta ™ Test Colour ([1]; E. coli 11771, Hyperproduced penicillinase, 30 min with HMRZ-86): Yellow
β-Lacta ™ Test Colour ([1]; E. coli 11776, Inducible cephalosporinase, 30 min with HMRZ-86): Yellow
β-Lacta ™ Test Colour ([1]; E. coli 11780, Hyperproduced penicillinase, 30 min with HMRZ-86): Yellow
β-Lacta ™ Test Colour ([1]; E. coli 11781, Low-level penicillinase, 30 min with HMRZ-86): Yellow
β-Lacta ™ Test Colour ([1]; E. coli 11791, Hyperproduced cephalosporinase, 30 min with HMRZ-86): Yellow
β-Lacta ™ Test Colour ([1]; E. coli 11810, ESBL CTX-M-1, 30 min with HMRZ-86): Red
β-Lacta ™ Test Colour ([1]; E. coli 11817, ESBL CTX-M-2, 30 min with HMRZ-86): Red
β-Lacta ™ Test Colour ([1]; E. coli 11818, ESBL CTX-M-1, 30 min with HMRZ-86): Red
β-Lacta ™ Test Colour ([1]; E. coli 11820, ESBL SHV-12, 30 min with HMRZ-86): Red
β-Lacta ™ Test Colour ([1]; E. coli 11828, ESBL CTX-M-27, 30 min with HMRZ-86): Red
β-Lacta ™ Test Colour ([1]; E. coli 11833, ESBL CTX-M-9, 30 min with HMRZ-86): Red
β-Lacta ™ Test Colour ([1]; E. coli 11834, ESBL TEM-12, 30 min with HMRZ-86): Yellow
β-Lacta ™ Test Colour ([1]; E. coli 11863, ESBL CTX-M-14, 30 min with HMRZ-86): Red
β-Lacta ™ Test Colour ([1]; E. coli K12, Beta-lactamase negative, 30 min with HMRZ-86): Yellow
β-Lacta ™ Test Colour (S. marcescens strain): Orange
β-Lacta ™ Test Colour (C. freundii strain): Yellow
β-Lacta ™ Test Colour (K. pneumoniae strains; K. pneumoniae 11754, Carbapenemase OXA-48 - CTX-M, 30 min with HMRZ-86): Red
β-Lacta ™ Test Colour (K. pneumoniae strains; K. pneumoniae 11762, Carbapenemase OXA-48, 30 min with HMRZ-86): Orange
β-Lacta ™ Test Colour (K. pneumoniae strains; K. pneumoniae 11770, Low-level penicillinase, 30 min with HMRZ-86): Yellow
β-Lacta ™ Test Colour (K. pneumoniae strains; K. pneumoniae 11812, ESBL CTX-M-15, 30 min with HMRZ-86): Red
β-Lacta ™ Test Colour (K. pneumoniae strains; K. pneumoniae 11839, Carbapenemase KPC-2, 30 min with HMRZ-86): Red
β-Lacta ™ Test Colour (K. pneumoniae strains; K. pneumoniae 11842, Carbapenemase NDM-1, 30 min with HMRZ-86): Red
